Assay results reported in ChEMBL document CHEMBL3638392, “6-1H-imidazo-quinazoline and quinolines derivatives, new MAO inhibitors and imidazoline receptor ligands” (2014).

Target: T1, Amine oxidase [flavin-containing] A (Homo sapiens, UniProt P21397)
T1 sequence (P21397 whole entry): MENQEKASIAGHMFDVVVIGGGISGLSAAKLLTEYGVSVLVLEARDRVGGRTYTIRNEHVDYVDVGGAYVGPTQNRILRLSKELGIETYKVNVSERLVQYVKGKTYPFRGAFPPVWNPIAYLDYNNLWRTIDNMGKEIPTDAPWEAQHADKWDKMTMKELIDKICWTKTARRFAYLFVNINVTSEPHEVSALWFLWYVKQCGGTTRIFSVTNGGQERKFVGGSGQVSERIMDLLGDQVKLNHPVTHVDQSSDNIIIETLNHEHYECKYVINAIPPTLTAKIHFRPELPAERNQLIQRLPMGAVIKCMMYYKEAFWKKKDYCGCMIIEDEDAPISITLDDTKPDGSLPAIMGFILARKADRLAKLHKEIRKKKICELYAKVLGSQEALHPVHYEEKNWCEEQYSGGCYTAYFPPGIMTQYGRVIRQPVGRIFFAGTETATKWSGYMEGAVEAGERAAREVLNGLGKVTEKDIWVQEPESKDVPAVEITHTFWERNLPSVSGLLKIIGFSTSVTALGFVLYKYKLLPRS
Test: Activity Assay: Inhibitory activity of compounds was evaluated by a homogeneous luminescent method, the MAO-Glo Assay (Promega), measuring the monoamine oxidase activity (MAOs) from recombinant source (microsomes from baculovirus infected insect cells, Sigma).

## CS(=O)(=O)c1ccc(-c2ccc3cc(-n4ccnc4)ccc3n2)cc1
  IC50: 450 nM
